Measured values as given in US20090197859A1 (Pfizer Inc., priority 2008, published 2009).

target: T1, cloned human 5-HT6 receptor (Homo sapiens, UniProt P50406); experiment: 5-HT6 Receptor Binding Assay ([3H]-LSD radioligand, SPA); conditions: read-out: 5HT6 % inh @ 1 uM
T1 construct: host or cells: HeLa cells, G-418 selection, membrane preparation
Method: 5-HT6 Receptor Binding Assay
Hela cells containing the cloned human 5-HT6 receptor were acquired from Dr. David R. Sibley's laboratory in National Institute of Health (see Sibley, D. R., J. Neurochemistry, 66, 47-56, 1996). Cells were grown in high glucose Dulbecco's modified Eagle's medium, supplemented with L-glutamine, 0.5% sodium pyruvate, 0.3% penicillin-streptomycin, 0.025% G-418 and 5% Gibco fetal bovine serum and then were harvested, when confluent, in cold phosphate buffered saline.
Harvested intact cells were washed once in cold phosphate-buffered saline. The cells were pelleted and resuspended in 100 ml of cold 50 mM Tris, 5 mM EDTA and 5 mM EGTA, pH 7.4. Homogenization was with a Vir Tishear generator, 4 cycles for 30 seconds each at setting 50. The homogenized cells were centrifuged at […] for 10 minutes and the supernatant was removed. The pellet was resuspended in 100 ml of the above buffer and rehomogenized for 2 cycles. The rehomogenized cells were then centrifuged at […] for 10 minutes and the supernatant was removed. The combined supernatant (200 ml) was centrifuged at 23,000 RPM (80,000×g) for 1 hour in a Beckman Rotor (42.1 Ti). The membrane pellet was resuspended in […] of assay buffer containing HEPES 20 mM, MgCl2 10 mM, NaCl 150 mM, EDTA 1 mM, pH 7.4 and stored frozen in aliqouts at −70° C.
The radioligand binding assay used [^3H]-lysergic acid diethylamide (LSD). The assay was carried out in Wallac 96-well sample plates by the addition of 11 μl of the test sample at the appropriate dilution (the assay employed 11 serial concentrations of samples run in duplicate), 11 μl of radioligand, and 178 μl of a washed mixture of WGA-coated SPA beads and membranes in binding buffer. The plates were shaken for about 5 minutes and then incubated at room temperature for 1 hour. The plates were then loaded into counting cassettes and counted in a Wallac MicroBeta Trilux scintillation counter.
Binding Constant Determination may be obtained by performing serial dilutions, e.g., eleven dilutions, of test compounds into assay plates using the PE/Cetus Pro/Pette pipetter. These dilutions are followed by radioligand and the bead-membrane mixture prepared as described above. After obtaining the specifically bound cpm, the data are fit to a one-site binding model using GraphPad Prism ver. 2.0. Estimated IC50 values are converted to Ki values using the Cheng-Prusoff equation (Cheng, Y. C. et al., Biochem. Pharmacol., 22, 3099-108, 1973).

T1 sequence (P50406 whole entry): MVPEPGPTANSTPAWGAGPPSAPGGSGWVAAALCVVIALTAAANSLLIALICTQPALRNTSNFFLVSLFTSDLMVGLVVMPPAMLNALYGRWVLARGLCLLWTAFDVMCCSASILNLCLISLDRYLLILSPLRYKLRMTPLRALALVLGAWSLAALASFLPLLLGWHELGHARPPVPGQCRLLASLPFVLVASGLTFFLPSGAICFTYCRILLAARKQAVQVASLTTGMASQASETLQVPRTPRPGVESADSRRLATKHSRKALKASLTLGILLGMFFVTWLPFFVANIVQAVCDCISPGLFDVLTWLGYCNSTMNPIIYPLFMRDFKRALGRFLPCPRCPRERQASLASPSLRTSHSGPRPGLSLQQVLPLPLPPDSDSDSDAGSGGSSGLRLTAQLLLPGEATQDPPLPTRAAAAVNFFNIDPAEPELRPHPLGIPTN

SMILES	inhibition at 1 µM [%]
CN1CCC(c2cccc(C(=O)N3CCC(Oc4cccc(F)c4)CC3)n2)C1 (stereo not drawn) [Example 16, [4-(3-Fluoro-phenoxy)-piperidin-1-yl]-[6-(1-methyl-pyrrolidin-3-yl)-pyridin-2-yl]-methanone]	93.2
CN1CC=C(c2cccc(C(=O)N3CCC(Oc4ccccc4F)CC3)n2)CC1 [Example 18, [4-(2-Fluoro-phenoxy)-piperidin-1-yl]-[1′-methyl-1′,2′,3′,6′-tetrahydro-[2,4′]bipyridinyl-6-yl)-methanone]	95.3
CN1CCN(c2cccc(C(=O)N3CC=C(c4ccccc4F)CC3)n2)CC1 [Example 21, [4-(2-Fluoro-phenyl)-3,6-dihydro-2H-pyridin-1-yl]-[6-(4-methyl-piperazin-1-yl)-pyridin-2-yl]-methanone]	97.8
O=C(c1cccc(N2CCNCC2)n1)N1CCC(c2ccccc2F)CC1 [Example 22, [4-(2-Fluoro-phenyl)-piperidin-1-yl]-(6-piperazin-1-yl-pyridin-2-yl)-methanone]	96.8
Cc1cccc(F)c1C1CCN(C(=O)c2cccc(N3CCN(C)CC3)n2)CC1 [Example 23, [4-(2-Fluoro-6-methyl-phenyl)-piperidin-1-yl]-[6-(4-methyl-piperazin-1-yl)-pyridin-2-yl]-methanone]	98.3
Cc1ccccc1C1CCCCN1C(=O)c1cccc(N2CCNCC2)n1 (stereo not drawn) [Example 26, (6-Piperazin-1-yl-pyridin-2-yl)-(2-o-tolyl-piperidin-1-yl)-methanone]	78.6
O=C(c1cccc(N2CCCNCC2)n1)N1CC[C@H](Oc2ccccc2F)C1 [Example 30, (6-[1,4]Diazepan-1-yl-pyridin-2-yl)-[(S)-3-(2-fluoro-phenoxy)-pyrrolidin-1-yl]-methanone]	98.8
CN1CCCN(c2cccc(C(=O)N3CC[C@@H](Oc4ccccc4F)C3)n2)CC1 [Example 46, [(R)-3-(2-Fluoro-phenoxy)-pyrrolidin-1-yl]-[6-(4-methyl-[1,4]diazepan-1-yl)-pyridin-2-yl]-methanone]	85
O=C(c1cccc(N2CCCNCC2)n1)N1CCC[C@@H](Oc2ccccc2F)C1 [Example 47, (6-[1,4]Diazepan-1-yl-pyridin-2-yl)-[(R)-3-(2-fluoro-phenoxy)-piperidin-1-yl]-methanone]	90.6
O=S(=O)(c1cccc(N2CCNCC2)n1)N1CCC(c2ccccc2F)CC1 [Example 51, 1-{6-[4-(2-Fluoro-phenyl)-piperidine-1-sulfonyl]-pyridin-2-yl}-piperazine]	97
Cc1ccccc1O[C@@H]1CCN(C(=O)c2cccc(N3CCCN(C)CC3)n2)C1 [Example 53, [6-(4-Methyl-[1,4]diazepan-1-yl)-pyridin-2-yl]-((R)-3-o-tolyloxy-pyrrolidin-1-yl)-methanone]	95.9
Cc1ccc([C@@H](C)N(C)C(=O)c2cccc(N3CCN(C)CC3)n2)cc1 [Example 60, 6-(4-Methyl-piperazin-1-yl)-pyridine-2-carboxylic acid methyl-((R)-1-p-tolyl-ethyl)-amide]	73.8
Cc1ccccc1C1CCN(S(=O)(=O)c2cccc(N3CCN(C)CC3)n2)CC1 [Example 78, 1-Methyl-4-[6-(4-o-tolyl-piperidine-1-sulfonyl)-pyridin-2-yl]-piperazine]	98.5
Cc1cccc([C@H]2CCCCN2C(=O)c2cccc(N3CCCN(C)CC3)n2)c1 [Example 81]	93.6
Cc1ccccc1C1CN(C(=O)c2cccc(N3CCN(C)CC3)n2)C1 [Example 82, [6-(4-Methyl-piperazin-1-yl)-pyridin-2-yl]-(3-o-tolyl-azetidin-1-yl)-methanone]	91.3
CN1CCN(c2cccc(C(=O)N3CC(c4ccccc4F)C3)n2)CC1 [Example 83, [3-(2-Fluoro-phenyl)-azetidin-1-yl]-[6-(4-methyl-piperazin-1-yl)-pyridin-2-yl]-methanone]	84.4
CN1CCN(c2cccc(C(=O)N3CC(c4cccc(F)c4)C3)n2)CC1 [Example 84, [3-(3-Fluoro-phenyl)-azetidin-1-yl]-[6-(4-methyl-piperazin-1-yl)-pyridin-2-yl]-methanone]	78

SMILES	inhibition at 1 µM [%]
CN1CCCN(c2cccc(C(=O)N3CCCC[C@@H]3c3ccccc3F)n2)CC1 [Example 89, [(R)-2-(2-Fluoro-phenyl)-piperidin-1-yl]-[6-(4-methyl-[1,4]diazepan-1-yl)-pyridin-2-yl]-methanone]	92.3
Cc1cccc(C2CN(C(=O)c3cccc(N4CCN(C)CC4)n3)C2)c1 [Example 91, [6-(4-Methyl-piperazin-1-yl)-pyridin-2-yl]-(3-m-tolyl-azetidin-1-yl)-methanone]	84.8
CN1CCN(c2cccc(C(=O)N3CCCC(c4cccc(F)c4)C3)n2)CC1 (stereo not drawn) [Example 94, [3-(3-Fluoro-phenyl)-piperidin-1-yl]-[6-(4-methyl-piperazin-1-yl)-pyridin-2-yl]-methanone]	90.8
Cc1ccccc1OC1CCN(C(=O)c2cccc(C3CCN(C)CC3)n2)CC1 [Example 95, (1′-Methyl-1′,2′,3′,4′,5′,6′-hexahydro-[2,4′]bipyridinyl-6-yl)-(4-o-tolyloxy-piperidin-1-yl)-methanone]	84
Cc1ccccc1OC1CCN(C(=O)c2cccc(C3=CCN(C)CC3)n2)CC1 [Example 98, (1′-Methyl-1′,2′,3′,6′-tetrahydro-[2,4′]bipyridinyl-6-yl)-(4-o-tolyloxy-piperidin-1-yl)-methanone]	99.1
CN1CCC(c2cccc(C(=O)N3CCC(Oc4ccccc4F)CC3)n2)CC1 [Example 99, [4-(2-Fluoro-phenoxy)-piperidin-1-yl]-(1′-methyl-1′,2′,3′,4′,5′,6′-hexahydro-[2,4′]bipyridinyl-6-yl)-methanone]	78.4
CN1CC=C(c2cccc(C(=O)N3CCC(Oc4ccccc4Cl)CC3)n2)CC1 [Example 100, [4-(2-Chloro-phenoxy)-piperidin-1-yl]-(1′-methyl-1′,2′,3′,6′-tetrahydro-[2,4′]bipyridinyl-6-yl)-methanone]	102
CN1CC=C(c2cccc(C(=O)N3CCC(Oc4ccccc4C(F)(F)F)CC3)n2)CC1 [Example 101, (1′-Methyl-1′,2′,3′,6′-tetrahydro-[2,4′]bipyridinyl-6-yl)-[4-(2-trifluoromethyl-phenoxy)-piperidin-1-yl]-methanone]	96.9
CN1CCN(c2cccc(C(=O)N3CCC(F)(c4ccccc4F)CC3)n2)CC1 [Example 107, [4-Fluoro-4-(2-fluoro-phenyl)-piperidin-1-yl]-[6-(4-methyl-piperazin-1-yl)-pyridin-2-yl]-methanone]	97.2
CN1CCC(c2cccc(C(=O)N3CCC(c4ccc(F)cc4F)CC3)n2)C1 (stereo not drawn) [Example 108, [4-(2,4-Difluoro-phenyl)-piperidin-1-yl]-[6-(1-methyl-pyrrolidin-3-yl)-pyridin-2-yl]-methanone]	95.4
CN1CCN(c2cccc(C(=O)N3CCC(Oc4ccc(F)cc4F)CC3)n2)CC1 [Example 109, [4-(2,4-Difluoro-phenoxy)-piperidin-1-yl]-[6-(4-methyl-piperazin-1-yl)-pyridin-2-yl]-methanone]	97.8
Cc1cccc(F)c1C1CCN(C(=O)c2cccc(C3=CCNC3)n2)CC1 [Example 110, [6-(2,5-Dihydro-1H-pyrrol-3-yl)-pyridin-2-yl]-[4-(2-fluoro-6-methyl-phenyl)-piperidin-1-yl]-methanone]	98.2
CN1CCC(c2cccc(C(=O)N3CCC(Oc4ccccc4F)CC3)n2)C1 (stereo not drawn) [Example 113, [4-(2-Fluoro-phenoxy)-piperidin-1-yl]-[6-(1-methyl-pyrrolidin-3-yl)-pyridin-2-yl]-methanone]	97.8
Cc1ccccc1C1CCN(C(=O)c2cccc(N3CCN(C4CC4)CC3)n2)CC1 [Example 114, [6-(4-Cyclopropyl-piperazin-1-yl)-pyridin-2-yl]-(4-o-tolyl-piperidin-1-yl)-methanone]	64.5
CN1CCN(c2cccc(C(=O)N3CCC(Cc4ccccc4F)CC3)n2)CC1 [Example 115, [4-(2-Fluoro-benzyl)-piperidin-1-yl]-[6-(4-methyl-piperazin-1-yl)-pyridin-2-yl]-methanone]	101
CN1CCN(c2cccc(C(=O)N3CCCC(c4ccccc4F)CC3)n2)CC1 (stereo not drawn) [Example 116, [4-(2-Fluoro-phenyl)-azepan-1-yl]-[6-(4-methyl-piperazin-1-yl)-pyridin-2-yl]-methanone]	98.5
